The record followed here is US20240269139A1, “COMPOUNDS FOR TARGETED PROTEIN DEGRADATION OF KINASES” (DANA-FARBER CANCER INSTITUTE, INC., priority 2020, published 2024).

Each structure is given as a SMILES string. Read-outs that look alike come from different tables or passages of the source.

Common to all, as to type: cell-based
In experiment [1] the target is T1, protein kinases (human kinome) (Homo sapiens, UniProt O14965).
T1 sequence (O14965 1-403): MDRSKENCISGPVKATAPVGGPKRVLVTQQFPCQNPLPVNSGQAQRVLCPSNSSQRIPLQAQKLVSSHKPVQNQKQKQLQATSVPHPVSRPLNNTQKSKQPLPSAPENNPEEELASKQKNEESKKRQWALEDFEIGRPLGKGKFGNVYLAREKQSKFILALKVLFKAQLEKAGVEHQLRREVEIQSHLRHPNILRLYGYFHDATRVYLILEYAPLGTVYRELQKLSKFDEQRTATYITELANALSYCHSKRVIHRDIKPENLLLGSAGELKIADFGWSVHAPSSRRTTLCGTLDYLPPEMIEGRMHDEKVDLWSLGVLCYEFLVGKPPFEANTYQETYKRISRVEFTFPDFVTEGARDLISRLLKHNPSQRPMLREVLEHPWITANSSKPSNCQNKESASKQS
An excerpt: (§1) Although development of targeted protein degraders requires a POI binder, among already-liganded proteins such as kinases, it was hypothesized that different targets would have a different propensity for current approaches to degrader-mediated destruction, which was termed ‘degradability’. […] It was rationalized that the probability of identifying the same kinase as a false positive in multiple treatments is low, therefore this analysis served to also assess the robustness of our data and subsequent interpretations. […] Overall, 62 protein kinases were degraded in more than 10 independent treatments, and remarkably, 9 of these (CDK4, AURKA, FER, WEE1, BLK. LIMK2, CDK6, GAK, LIMK1) were each degraded in at least 40 of the 154 independent treatments, emphasizing their predisposition to induced degradation (FIG. 1G; Appendix I).
(§2) Next, the frequency of degradation assessment was corrected for over-representation of molecules in the full dataset by omitting replicate profiling of compounds under different experimental conditions, to remove any bias. […] Unsurprisingly, the top degradable kinases mirror those from the previous analysis (CDK4, AURKA, FER, WEE1, BLK), confirming that in sufficiently large datasets, even with over-representation of certain molecules, frequency of degradation is a good measure of general tractability.

Experiment [2] concerns the target protein kinases (human kinome) (Homo sapiens, UniProt Q2M2I8).
Description: as §1, §2

In experiment [3] the target is protein kinases (human kinome) (Homo sapiens, UniProt P11802).
Description: as §1, §2

The target in experiment [4] is protein kinases (human kinome) (Homo sapiens, UniProt P30291). Conditions: for logFC of WEE1: WEE1 P30291-1.
Description: as §1, §2

The target of experiment [5] is protein kinases (human kinome) (Homo sapiens, UniProt Q00537).
Description: as §1, §2

Experiment [6] deals with protein kinases (human kinome).
Description: as §1, §2

In experiment [7] the target is protein kinases (human kinome) (Homo sapiens, UniProt P53667). As to conditions: LIMK1 (P53667-1), experiment wp056.
Description: as §1, §2

In experiment [8] the target is protein kinases (human kinome) (Homo sapiens, UniProt P53671). Conditions: experiment wp056.
Description: as §1, §2

Experiment [9] concerns the target protein kinases (human kinome) (Homo sapiens, UniProt P16591). As to conditions: FER P16591-1; experiment wp012.
Description: as §1, §2

Experiment [10] concerns the target T2, protein kinases (human kinome) (Homo sapiens, UniProt O14976).
T2 sequence (O14976 1-1311): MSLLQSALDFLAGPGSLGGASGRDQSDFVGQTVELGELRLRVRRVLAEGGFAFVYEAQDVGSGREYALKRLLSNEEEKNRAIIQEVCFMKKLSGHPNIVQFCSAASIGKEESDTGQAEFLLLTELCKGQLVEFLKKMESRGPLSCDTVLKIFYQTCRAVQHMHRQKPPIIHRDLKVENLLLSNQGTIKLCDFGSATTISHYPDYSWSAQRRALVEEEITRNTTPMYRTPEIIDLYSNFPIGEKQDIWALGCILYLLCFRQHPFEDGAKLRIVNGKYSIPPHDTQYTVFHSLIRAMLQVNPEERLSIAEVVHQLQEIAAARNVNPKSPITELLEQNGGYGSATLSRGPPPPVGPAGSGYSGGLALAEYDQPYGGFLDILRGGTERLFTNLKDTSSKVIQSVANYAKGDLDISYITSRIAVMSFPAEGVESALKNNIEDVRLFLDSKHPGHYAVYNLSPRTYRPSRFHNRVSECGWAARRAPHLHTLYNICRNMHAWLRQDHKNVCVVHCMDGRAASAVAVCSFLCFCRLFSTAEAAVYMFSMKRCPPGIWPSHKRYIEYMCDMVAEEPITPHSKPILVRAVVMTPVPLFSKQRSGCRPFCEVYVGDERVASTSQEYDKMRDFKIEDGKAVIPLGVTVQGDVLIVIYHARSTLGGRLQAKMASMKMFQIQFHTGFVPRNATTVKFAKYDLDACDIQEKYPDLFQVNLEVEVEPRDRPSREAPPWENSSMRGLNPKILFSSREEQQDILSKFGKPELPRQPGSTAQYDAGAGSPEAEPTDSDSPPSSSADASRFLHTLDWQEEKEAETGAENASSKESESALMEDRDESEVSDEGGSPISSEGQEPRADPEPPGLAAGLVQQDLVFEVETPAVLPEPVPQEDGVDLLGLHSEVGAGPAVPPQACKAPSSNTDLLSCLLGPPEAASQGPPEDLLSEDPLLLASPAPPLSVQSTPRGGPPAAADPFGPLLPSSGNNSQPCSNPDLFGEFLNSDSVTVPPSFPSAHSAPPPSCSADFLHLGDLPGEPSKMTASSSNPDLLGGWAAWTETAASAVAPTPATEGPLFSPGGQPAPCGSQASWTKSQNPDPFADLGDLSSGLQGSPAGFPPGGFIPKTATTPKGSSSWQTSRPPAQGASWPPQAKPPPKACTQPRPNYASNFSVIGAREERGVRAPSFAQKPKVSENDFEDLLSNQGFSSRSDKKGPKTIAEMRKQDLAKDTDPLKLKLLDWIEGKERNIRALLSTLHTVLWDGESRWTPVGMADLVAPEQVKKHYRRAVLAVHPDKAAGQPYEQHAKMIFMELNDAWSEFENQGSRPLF
Description: as §1, §2

Setting [11] is: AURKB Q96GD4-5, experiment wp080.

Sequence of protein kinases (human kinome) (Homo sapiens, UniProt Q00537) (Q00537 whole entry): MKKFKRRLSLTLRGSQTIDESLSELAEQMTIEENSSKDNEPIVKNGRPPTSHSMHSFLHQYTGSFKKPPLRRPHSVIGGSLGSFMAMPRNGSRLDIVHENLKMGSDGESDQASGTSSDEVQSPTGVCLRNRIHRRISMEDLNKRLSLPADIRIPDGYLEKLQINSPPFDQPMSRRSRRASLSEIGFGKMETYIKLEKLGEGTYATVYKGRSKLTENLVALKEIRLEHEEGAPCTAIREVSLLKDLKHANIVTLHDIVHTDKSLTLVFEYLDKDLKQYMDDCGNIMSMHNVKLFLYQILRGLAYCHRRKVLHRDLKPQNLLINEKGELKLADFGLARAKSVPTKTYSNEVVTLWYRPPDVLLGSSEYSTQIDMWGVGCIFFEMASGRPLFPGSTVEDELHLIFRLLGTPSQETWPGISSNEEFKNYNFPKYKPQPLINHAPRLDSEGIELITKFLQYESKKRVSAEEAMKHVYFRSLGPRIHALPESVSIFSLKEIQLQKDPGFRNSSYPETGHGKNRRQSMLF
Sequence of protein kinases (human kinome) (Homo sapiens, UniProt P11802) (P11802 whole entry): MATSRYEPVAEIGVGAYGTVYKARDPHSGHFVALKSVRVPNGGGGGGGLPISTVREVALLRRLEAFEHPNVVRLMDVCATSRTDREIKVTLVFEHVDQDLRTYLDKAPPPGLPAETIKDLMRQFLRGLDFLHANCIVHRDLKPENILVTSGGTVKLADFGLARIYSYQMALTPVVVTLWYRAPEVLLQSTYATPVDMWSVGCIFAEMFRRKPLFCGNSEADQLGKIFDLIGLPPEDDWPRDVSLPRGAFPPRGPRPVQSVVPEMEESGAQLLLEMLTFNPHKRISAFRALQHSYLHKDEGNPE
Sequence of protein kinases (human kinome) (Homo sapiens, UniProt P30291) (P30291 whole entry): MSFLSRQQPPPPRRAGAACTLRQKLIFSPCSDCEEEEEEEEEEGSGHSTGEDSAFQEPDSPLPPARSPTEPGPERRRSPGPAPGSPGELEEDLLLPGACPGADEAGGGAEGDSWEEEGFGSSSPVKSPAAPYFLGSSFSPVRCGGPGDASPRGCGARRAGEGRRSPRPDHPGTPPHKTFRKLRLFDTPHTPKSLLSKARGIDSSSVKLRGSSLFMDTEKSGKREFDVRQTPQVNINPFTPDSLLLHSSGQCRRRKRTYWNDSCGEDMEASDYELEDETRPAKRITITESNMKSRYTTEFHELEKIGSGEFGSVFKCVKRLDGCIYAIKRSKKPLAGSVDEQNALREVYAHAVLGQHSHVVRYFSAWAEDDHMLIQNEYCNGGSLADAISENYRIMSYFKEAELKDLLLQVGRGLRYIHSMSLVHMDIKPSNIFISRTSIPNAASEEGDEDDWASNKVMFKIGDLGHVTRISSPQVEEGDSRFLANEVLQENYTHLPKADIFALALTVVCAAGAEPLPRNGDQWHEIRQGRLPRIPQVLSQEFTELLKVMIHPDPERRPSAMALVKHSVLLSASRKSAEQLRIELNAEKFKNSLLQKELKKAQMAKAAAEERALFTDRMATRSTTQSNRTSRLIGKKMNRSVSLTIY
Sequence of protein kinases (human kinome) (Homo sapiens, UniProt Q2M2I8) (Q2M2I8 whole entry): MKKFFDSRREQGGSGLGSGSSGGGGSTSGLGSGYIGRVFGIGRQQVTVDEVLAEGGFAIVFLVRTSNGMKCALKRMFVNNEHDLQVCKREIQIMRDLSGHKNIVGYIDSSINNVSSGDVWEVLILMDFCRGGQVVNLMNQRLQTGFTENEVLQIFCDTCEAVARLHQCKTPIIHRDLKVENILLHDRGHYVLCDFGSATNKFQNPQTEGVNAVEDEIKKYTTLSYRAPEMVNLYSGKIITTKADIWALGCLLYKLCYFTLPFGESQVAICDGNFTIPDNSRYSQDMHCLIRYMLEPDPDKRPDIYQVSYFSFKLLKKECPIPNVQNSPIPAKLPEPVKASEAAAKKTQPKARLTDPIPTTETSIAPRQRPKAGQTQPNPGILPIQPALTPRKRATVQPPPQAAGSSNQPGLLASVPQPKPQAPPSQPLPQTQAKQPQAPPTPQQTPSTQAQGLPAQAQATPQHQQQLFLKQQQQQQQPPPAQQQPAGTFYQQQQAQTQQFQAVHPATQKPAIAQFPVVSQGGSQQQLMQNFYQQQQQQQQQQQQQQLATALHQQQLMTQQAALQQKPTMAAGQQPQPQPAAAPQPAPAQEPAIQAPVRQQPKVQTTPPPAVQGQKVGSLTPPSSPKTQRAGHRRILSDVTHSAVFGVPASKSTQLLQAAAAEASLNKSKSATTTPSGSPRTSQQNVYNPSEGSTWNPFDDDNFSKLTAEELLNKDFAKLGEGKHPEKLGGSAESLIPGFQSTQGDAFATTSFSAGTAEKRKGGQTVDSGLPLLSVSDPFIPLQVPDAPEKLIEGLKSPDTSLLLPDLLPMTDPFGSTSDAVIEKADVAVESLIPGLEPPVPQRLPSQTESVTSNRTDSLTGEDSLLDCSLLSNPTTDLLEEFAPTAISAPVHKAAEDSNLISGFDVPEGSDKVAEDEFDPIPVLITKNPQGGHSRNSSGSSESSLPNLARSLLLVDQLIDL
Sequence of protein kinases (human kinome) (Homo sapiens, UniProt P53671) (P53671 whole entry): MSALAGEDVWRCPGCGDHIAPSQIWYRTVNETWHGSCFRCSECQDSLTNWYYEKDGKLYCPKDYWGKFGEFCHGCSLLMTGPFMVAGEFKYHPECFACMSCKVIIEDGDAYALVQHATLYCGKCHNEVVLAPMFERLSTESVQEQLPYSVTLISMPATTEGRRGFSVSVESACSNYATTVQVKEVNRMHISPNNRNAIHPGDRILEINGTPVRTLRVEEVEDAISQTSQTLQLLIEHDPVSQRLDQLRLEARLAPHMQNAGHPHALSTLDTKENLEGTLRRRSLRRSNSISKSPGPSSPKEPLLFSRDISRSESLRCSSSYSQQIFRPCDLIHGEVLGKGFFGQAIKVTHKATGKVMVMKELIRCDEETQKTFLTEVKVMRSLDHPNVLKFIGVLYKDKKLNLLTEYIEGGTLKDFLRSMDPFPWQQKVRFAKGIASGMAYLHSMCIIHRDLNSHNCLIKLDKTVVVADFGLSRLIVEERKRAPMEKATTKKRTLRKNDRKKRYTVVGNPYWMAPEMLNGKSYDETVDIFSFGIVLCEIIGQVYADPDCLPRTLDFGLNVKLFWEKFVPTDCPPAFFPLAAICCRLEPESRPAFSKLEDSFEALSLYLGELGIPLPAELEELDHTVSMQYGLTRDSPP
Sequence of protein kinases (human kinome) (Homo sapiens, UniProt P53667) (P53667 whole entry): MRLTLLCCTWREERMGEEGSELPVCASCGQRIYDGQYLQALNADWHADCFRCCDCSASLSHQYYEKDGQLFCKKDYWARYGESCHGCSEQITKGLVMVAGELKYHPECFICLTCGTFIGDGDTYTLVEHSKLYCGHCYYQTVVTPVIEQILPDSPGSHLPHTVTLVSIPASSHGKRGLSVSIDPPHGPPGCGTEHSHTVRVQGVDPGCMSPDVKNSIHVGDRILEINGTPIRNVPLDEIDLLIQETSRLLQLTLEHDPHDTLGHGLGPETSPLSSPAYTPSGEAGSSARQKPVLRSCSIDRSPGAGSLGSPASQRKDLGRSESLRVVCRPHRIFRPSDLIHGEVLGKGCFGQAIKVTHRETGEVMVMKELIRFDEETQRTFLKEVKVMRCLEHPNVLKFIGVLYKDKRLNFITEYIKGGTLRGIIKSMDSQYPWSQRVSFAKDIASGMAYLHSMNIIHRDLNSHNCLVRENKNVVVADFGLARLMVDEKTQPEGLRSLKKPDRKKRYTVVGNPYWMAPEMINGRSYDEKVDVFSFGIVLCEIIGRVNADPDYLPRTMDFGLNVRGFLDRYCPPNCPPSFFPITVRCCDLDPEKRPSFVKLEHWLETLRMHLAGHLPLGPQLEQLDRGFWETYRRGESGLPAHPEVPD
Sequence of protein kinases (human kinome) (Homo sapiens, UniProt P16591) (P16591 whole entry): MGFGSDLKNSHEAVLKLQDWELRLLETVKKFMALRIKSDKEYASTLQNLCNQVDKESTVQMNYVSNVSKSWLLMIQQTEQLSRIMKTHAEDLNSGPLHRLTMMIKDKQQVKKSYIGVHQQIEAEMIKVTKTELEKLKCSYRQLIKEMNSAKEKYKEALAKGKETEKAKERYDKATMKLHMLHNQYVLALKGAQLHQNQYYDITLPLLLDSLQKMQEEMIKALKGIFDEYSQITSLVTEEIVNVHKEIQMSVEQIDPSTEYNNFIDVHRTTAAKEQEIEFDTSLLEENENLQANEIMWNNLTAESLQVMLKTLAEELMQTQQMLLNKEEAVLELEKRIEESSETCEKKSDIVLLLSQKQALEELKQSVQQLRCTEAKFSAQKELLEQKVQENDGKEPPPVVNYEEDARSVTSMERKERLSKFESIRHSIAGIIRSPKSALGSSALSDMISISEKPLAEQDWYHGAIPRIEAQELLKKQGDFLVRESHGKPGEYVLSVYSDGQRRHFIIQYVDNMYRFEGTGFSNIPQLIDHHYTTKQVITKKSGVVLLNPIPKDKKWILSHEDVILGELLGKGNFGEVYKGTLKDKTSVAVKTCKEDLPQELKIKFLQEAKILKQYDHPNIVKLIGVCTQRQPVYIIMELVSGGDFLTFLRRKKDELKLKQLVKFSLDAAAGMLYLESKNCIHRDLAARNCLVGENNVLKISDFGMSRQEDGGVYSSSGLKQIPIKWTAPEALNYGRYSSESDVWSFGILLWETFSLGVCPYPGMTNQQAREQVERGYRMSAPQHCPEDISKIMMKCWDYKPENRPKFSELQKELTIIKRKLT

On to `CS(=O)(=O)c1ccc(-c2cccn3nc(Nc4cccc(N5CCN(CCCCCCNC(=O)COc6cccc7c6C(=O)N(C6CCC(=O)NC6=O)C7=O)CC5)c4)nc23)cc1` (stereo not shown) [JWG.120], for which the “logFC AURKA (O14965)” value in experiment [1] (experiment wp134) is recorded as −1.562. The “logFC AAK1” value in experiment [2] (AAK1 (Q2M218-1), experiment wp134, down) is −0.3362; in experiment [2] (AAK1, accession Q2M218-1, experiment wp134, direction of change down), −0.3362.

Regarding `CC(=O)c1c(C)c2cnc(Nc3ccc(N4CCN(CC(=O)NCCOCCOCCOCCNc5cccc6c5C(=O)N(C5CCC(=O)NC5=O)C6=O)CC4)cn3)nc2n(C2CCCC2)c1=O` (stereo not shown) [YKL.6.102], in experiment [3] (experiment wp005), the “logFC CDK4 (P11802)” value is recorded as −0.642. Further, the “logFC WEE1 (P30291-1)” value in [4] (experiment wp005) was −0.3649.

For the compound `CC(C)(C)c1nc(-c2cccc(NS(=O)(=O)c3c(F)cccc3F)c2F)c(-c2ccnc(NCCOCCNC(=O)CCOCCOCCNc3cccc4c3C(=O)N(C3CCC(=O)NC3=O)C4=O)n2)s1` (stereo not shown) [DD-03-106, N-(2-(2-((4-(2-(tert-butyl)-4-(3-((2,6-difluorophenyl)sulfonamido)-2-fluorophenyl)thiazol-5-yl)pyrimidin-2-yl)amino)ethoxy)ethyl)-3-(2-(2-((2-(2,6-dioxopiperidin-3-yl)-1,3-dioxoisoindolin-4-yl)amino)ethoxy)ethoxy)propenamide], in [5], the “preference for degrading CDK17” value is on record as “strong preference for degrading CDK17”. Moreover, the “kinases the bifunctional compound degrades” value in experiment [6] (as stated for the structure in the embodiments) is “AURKA, BCKDK, CDK1, CDK16, CDK17, CDK2, CDK3, CDK4, CDK6, COQ8A, COQ8B, CSK, EIF2AK2, LIMK1, LIMK2, MAP3K20, NLK, PLK1, PDK1, PDK2, and TESK2”. Also, in experiment [6] (kinases significantly downregulated vs DMSO (fold change cutoff −1.25, P-value<0.01), ≤8 h, 0.1-5 μM degrader, 7 cell lines), the Kinase hits result is recorded as “AURKA, BCKDK, CDK1, CDK16, CDK17, CDK2, CDK3, CDK4, CDK6, COQ8A, COQ8B, CSK, EIF2AK2, LIMK1, LIMK2, MAP3K20, NLK, PLK1, PDK1, PDK2, TESK2”. Moreover, the “Total no. kinase hits” value in experiment [6] (number of degraded kinases per library compound) turned out to be 21.

Take `COc1cc(Nc2ncc3c(n2)-c2ccc(Cl)cc2C(c2c(F)cccc2OC)=NC3)ccc1C(=O)NCCCOCCOCCOCCCNC(=O)COc1cccc2c1C(=O)N(C1CCC(=O)NC1=O)C2=O` (stereo not shown) [dAURK.4]: the “logFC AURKA (O14965)” value in experiment [1] (experiment wp080) is −1.055. For the same compound, in experiment [6] (setting [11]), the logFC is recorded as −0.3932 and the “logFC AURKB” value is −0.3932.

On to `CC(=O)c1c(C)c2cnc(Nc3ccc(N4CCN(CCCCNC(=O)CNc5cccc6c5C(=O)N(C5CCC(=O)NC5=O)C6=O)CC4)cn3)nc2n(C2CCCC2)c1=O` (stereo not shown) [BSJ.01.147], for which the “logFC CDK4 (P11802)” value in experiment [3] (experiment wp005) is on record as −1.415; in experiment [3] (experiment wp084) it was −1.8. For the same compound, the “logFC of WEE1” value in [4] (experiment wp084) was −0.5617. For the same compound, the “logFC WEE1 (P30291-1)” value in experiment [4] (experiment wp005) is given as −0.447; in [4] (experiment wp084), −0.5617.

For the compound `Cc1ncsc1-c1ccc([C@H](C)NC(=O)[C@@H]2C[C@@H](O)CN2C(=O)[C@@H](NC(=O)CCOCCOCCNc2nccc(-c3sc(C(C)(C)C)nc3-c3cccc(NS(=O)(=O)c4c(F)cccc4F)c3F)n2)C(C)(C)C)cc1` [DD.03.156], the “logFC LIMK1” value in [7] (direction down) and in [7] (down) was −1.037 each time. For the same compound, in experiment [8] (LIMK2 (P53671), down), the “logFC LIMK2” value is recorded as −1.703. In experiment [8] (LIMK2 P53671), the “logFC of LIMK2” value was −1.703. The “logFC of CDK17” value in experiment [5] (Accession Q00537, experiment wp056) is −1.825. Further, in experiment [5] (experiment wp056, direction of change down), the “logFC CDK17 (Q00537)” value was −1.825.

On to `Cc1cc(Nc2ncc(Cl)c(Nc3ccccc3S(=O)(=O)C(C)C)n2)c(OC(C)C)cc1C1CCN(CCOCCOCCNC(=O)CNc2cccc3c2C(=O)N(C2CCC(=O)NC2=O)C3=O)CC1` (stereo not shown) [TI13.112], for which, in experiment [9], the “logFC of FER” value is −0.5247. Further, the “logFC PTK2” value in [6] (Accession Q05397-5, experiment wp012, direction down) is −0.6217. The “logFC RPS6KA1 (Q15418-2)” value in experiment [6] (RPS6KA1 protein abundance, degrader vs DMSO, experiment wp012) is reported as −0.7875.

With `Cc1cnc(Nc2ccc(N3CCN(CCOCCOCCC(=O)N[C@H](C(=O)N4C[C@H](O)C[C@H]4C(=O)N[C@@H](C)c4ccc(-c5scnc5C)cc4)C(C)(C)C)CC3)cc2)nc1Nc1cccc(S(=O)(=O)NC(C)(C)C)c1` [JWG.122], the “logFC of GAK (O14976)” value in [10] (Experiment wp088, down) was −0.3586. Besides, the “logFC GAK” value in experiment [10] (GAK (O14976), direction down, experiment wp088) is on record as −0.3586. The “logFC AAK1” value in experiment [2] (AAK1 (Q2M218-1), experiment wp088, down) is recorded as −0.6335; in experiment [2] (AAK1, accession Q2M218-1, experiment wp088, direction of change down), −0.6335.

Consider `CNC(=O)c1ccccc1Nc1cc(Nc2ccc(N3CCN(CCOCCOCCNC(=O)CNc4cccc5c4C(=O)N(C4CCC(=O)NC4=O)C5=O)CC3)cc2OC)ncc1C(F)(F)F` (stereo not shown) [MFH.S.103.1], for which the “logFC of WEE1” value in experiment [4] (experiment wp076, degrader vs DMSO) was −0.9694.
